Our source for the IC50 values is patent US4820836A, “Prostacyclin (PGI2) analogues” (Shionogi & Co., Ltd., priority 1986, dated 1989).

Like-named read-outs stand apart in the source and are kept apart here.

The test has as its system Platelet Agglutination. The test can be described thus: In vitro inhibition of platelet agglutination (rabbit platelet rich plasma, aggregometer) induced by arachidonic acid, collagen or ADP. It is filed as cell-based. To be noted: Oryctolagus cuniculus, rabbit PRP. How it is done: The inhibitory activity of the representative compounds of the present invention against platelet agglutination is shown in the following in vitro test.
Mature male rabbits (NIBS-JW, RABITON Institute Inc., weighing 2.2-2.7 kg) were used. Under sodium pentobarbital anesthesia (Somnopentyl, Pitman Movre, about 25 mg/Kg, i.v.), blood was with from the carotid artery by cannulation into centrifuge tubes containg 1/10 vol of a 3.8% sodium citrate solution. (The total volume in each tube was adjusted to 8 ml.) The blood in a tube was gentyl mixed by turing and centrifuged for 10 minutes at 210 g at 20° C. to give platelet rich plasma (PRP). The remaining blood was further centrifuged at 3,000 rpm (about 1,900 g) for 10 minutes at 20° C. to give platelet-poor plasma (PPP).
PRP was diluted with PPP to prepare a blood sample whose platelet number was 50-55×10^4 /μl. The sample was then subjected to a platelet agglutination test.
The platelet agglutination was examined by the method of Bron [Born, G.V.R., Nature, 194, 927-929 (1962)], using a Type AUTO RAM-61 aggregometer, (Rika Denki Co., Ltd., Tokyo). A volume of 400 μl of PRP, whose platelet number was adjusted to 50-55×10^4 /μl, was placed in a measuring cuvette and set in the aggregometer. PRP was warmed at 37° C. for 1 minute with stirring at 1,200 rpm, and then a solution of the test compound [dimethylsulfoxide solution (2 μl) of the compound+saline (48 μl); in case of prostaglandin I2 (PGI2) and prostaglandin E1 (PG E1), a solution of each compound (50 μl) in Tris buffer] was added thereto. Exactly 2 minutes later, 50 μl of ADP Pharmacia, U.S.A., (final concentration: 30 μM) or collagen (final muchen, muchen, concentration: 20 μg/ml) or arachidonic acid (sodium salt, Sigma, final concentration (500 μM) was added as a platelet agglutinating agent, and the change in light transmission caused by platelet agglutination was recorded.
The light transmissions of PRP and PPP were taken as 0% and 100% agglutination, respectively, and the maximum light transmission after addition of an agglutinating agent was made to the maxiumum agglutination. The inhibition rate of the platelet agglutination was expressed as the percentage of the maximum agglutination by a test compound to that by a control (Vehicle added group).
Prostaglandin (PG) I2 and E1 are served as standard substances.

[1] abbreviates: ADP, final 30 μM, 37° C., compound in dimethylsulfoxide+saline, read-out: Inhibition Activity against Platelet Agglutination [50% Inhibition Concentration (μM)], ADP.
Where [2] appears, read: arachidonic acid, final 500 μM, 37° C., compound in dimethylsulfoxide+saline, read-out: Inhibition Activity against Platelet Agglutination [50% Inhibition Concentration (μM)], Arachidonic acid.
The mark [3] stands for this setting: collagen, final 20 μg/ml, 37° C., compound in dimethylsulfoxide+saline, read-out: Inhibition Activity against Platelet Agglutination [50% Inhibition Concentration (μM)], Collagen.

As to `C#C[C@]12C[C@@H](O)[C@H](/C=C/[C@H](O)C(C)CCCC)[C@H]1CC(SCCCC(=O)OCC)=N2` (stereo partly drawn) [17(R)g-b], the IC50 reads like this: under setting [1], 2.06 µM; under setting [2], 1.55 µM; under setting [3], 0.54 µM.
In the case of `C#C[C@]12C[C@@H](O)[C@H](/C=C/[C@H](O)C(C)CC#CC)[C@H]1CC(SCCCC(=O)OCC)=N2` (stereo partly drawn) [17(R)g-d], the IC50 came to 8.43 µM under setting [1], 11.7 µM under setting [2] and 4 µM under setting [3].
In the case of `C#C[C@]12C[C@@H](O)[C@H](/C=C/[C@H](O)C3CCCCC3)[C@H]1CC(SCCCC(=O)OCC)=N2` [17(R)g-e], the IC50 is, setting by setting: under setting [1], 13.4 µM; under setting [2], 60.6 µM; under setting [3], 3 µM.
Regarding `C=C[C@]12C[C@@H](O)[C@H](/C=C/[C@H](O)C(C)CC#CC)[C@H]1CC(SCCCC(=O)OCC)=N2` (stereo partly drawn) [17(R)l-d], the IC50 under setting [1] is 55 µM, the IC50 under setting [2] turned out to be 118 µM and the IC50 under setting [3] is 23 µM.
Turning to `C=C[C@]12C[C@@H](O)[C@H](/C=C/[C@H](O)C3CCCC3)[C@H]1CC(SCCCC(=O)OCC)=N2` [17(R)l-f], the IC50 came out at 142 µM under setting [1], 443 µM under setting [2] and 54 µM under setting [3].
With `CCCCC[C@H](O)/C=C/[C@H]1[C@H](O)C[C@]2(Sc3ccccc3)N=C(SCCCC(=O)OCC)C[C@H]12` [17(S)a, ethyl 4-[7-hydroxy-6-[(3S)-3-hydroxy-1-octenyl]-1-phenylthio-2-azabicyclo[3.3.0]oct-2-en-3-yl]thiobutanoate], the IC50 stood at 16 µM under setting [1], 21 µM under setting [2] and 8 µM under setting [3].
In the case of `CCCCC[C@H](O)/C=C/[C@H]1[C@H](O)C[C@]2(OC)N=C(SCCCC(=O)OCC)C[C@H]12` [17(S)b], the IC50 reads like this: under setting [1], 15 µM; under setting [2], 16 µM; under setting [3], 7 µM.
`CCCCC[C@H](O)/C=C/[C@H]1[C@H](O)C[C@]2(CC)N=C(SCCCC(=O)OCC)C[C@H]12` [17(S)d]: the IC50 turned out to be 18 µM under setting [1], 160 µM under setting [2] and 9 µM under setting [3].
In the same order, the values of `CCCCC[C@H](O)/C=C/[C@H]1[C@H](O)C[C@]2(C)N=C(SCCCC(=O)OCC)C[C@H]12` [17(S)e] are 1.6 µM, 4.4 µM and 0.6 µM.
Take `C#C[C@]12C[C@@H](O)[C@H](/C=C/[C@@H](O)CCCCC)[C@H]1CC(SCCCC(=O)OCC)=N2` [17(S)g, ethyl 4-[1-ethynyl-7-hydroxy-6-[(3S)-3-hydroxy-1-octenyl]-2-azabicyclo[3.3.0]oct-2-en-3-yl]thiobutanoate]: the IC50 under setting [1] was found to be 0.011 µM, the IC50 under setting [2] amounted to 0.02 µM and the IC50 under setting [3] came to 0.006 µM.
In the case of `C#C[C@]12C[C@@H](O)[C@H](/C=C/[C@@H](O)C(C)CCCC)[C@H]1CC(SCCCC(=O)OCC)=N2` (stereo partly drawn) [17(S)g-b], the IC50 amounted to 0.0066 µM under setting [1], 0.012 µM under setting [2] and 0.0013 µM under setting [3].
As for `C#C[C@]12C[C@@H](O)[C@H](/C=C/[C@@H](O)C(C)CC#CC)[C@H]1CC(SCCCC(=O)OCC)=N2` (stereo partly drawn) [17(S)g-d], the IC50 turned out to be 0.014 µM under setting [1], 0.018 µM under setting [2] and 0.0042 µM under setting [3].
With `C#C[C@]12C[C@@H](O)[C@H](/C=C/[C@@H](O)C3CCCCC3)[C@H]1CC(SCCCC(=O)OCC)=N2` [17(S)g-e], the IC50 by setting is: under setting [1], 0.033 µM; under setting [2], 0.146 µM; under setting [3], 0.0094 µM.
On to `CC#C[C@]12C[C@@H](O)[C@H](/C=C/[C@@H](O)CCCCC)[C@H]1CC(SCCCC(=O)OCC)=N2` [17(S)h], for which the IC50 reads like this: under setting [1], 0.006 µM; under setting [2], 0.01 µM; under setting [3], 0.0013 µM.
For `CCCCC[C@H](O)/C=C/[C@H]1[C@H](O)C[C@]2(C#Cc3ccccc3)N=C(SCCCC(=O)OCC)C[C@H]12` [17(S)i], the IC50 runs as follows: under setting [1], 5 µM; under setting [2], 44 µM; under setting [3], 0.45 µM.
`C#CC#C[C@]12C[C@@H](O)[C@H](/C=C/[C@@H](O)CCCCC)[C@H]1CC(SCCCC(=O)OCC)=N2` [17(S)k, ethyl 4-[1-(1,3-butadiynyl)-7-hydroxy-6-[(3S)-3-hydroxy-1-octenyl]-2-azabicycl[3.3.0]oct-2-en-3-yl]thiobutanoate]: the IC50 runs as follows: under setting [1], 0.27 µM; under setting [2], 0.74 µM; under setting [3], 0.053 µM.
The corresponding values for `C=C[C@]12C[C@@H](O)[C@H](/C=C/[C@@H](O)CCCCC)[C@H]1CC(SCCCC(=O)OCC)=N2` [17(S)l, ethyl 4-[1-ethenyl-7-hydroxy-6[(3S)-3-hydroxy-1-octenyl]-2-azabicyclo[3.3.0]oct-2-en-3-yl]thiobutanoate] are 0.42 µM, 0.7 µM and 0.1 µM.
Regarding `C=C[C@]12C[C@@H](O)[C@H](/C=C/[C@@H](O)C(C)CC#CC)[C@H]1CC(SCCCC(=O)OCC)=N2` (stereo partly drawn) [17(S)l-d], the IC50 reads like this: under setting [1], 0.13 µM; under setting [2], 0.36 µM; under setting [3], 0.048 µM.
`C=C[C@]12C[C@@H](O)[C@H](/C=C/[C@@H](O)C3CCCC3)[C@H]1CC(SCCCC(=O)OCC)=N2` [17(S)l-f]: the IC50 reads like this: under setting [1], 0.3 µM; under setting [2], 1.2 µM; under setting [3], 0.12 µM.
As to `CCCCC[C@H](O)/C=C/[C@H]1[C@H](O)C[C@]2(C#N)N=C(SCCCC(=O)OCC)C[C@H]12` [17(S)m, ethyl 4-[1-cyano-7-hydroxy-6-[(3S)-3-hydroxy-1-octenyl]-2-azabicyclo[3.3.0]oct-2-en-3-yl]thiobutanoate], the IC50 under setting [1] stood at 0.167 µM, the IC50 under setting [2] was 0.332 µM and the IC50 under setting [3] was found to be 0.044 µM.
As for `C#C[C@]12C[C@@H](O)[C@H](/C=C/[C@@H](O)CCCCC)[C@H]1CC(SCCCC(=O)OC)=N2` [18(S)g, methyl 4-[1-ethynyl-7-hydroxy-6-[(3S)-3-hydroxy-1-octenyl]-2-azabicyclo[3.3.0]oct-2-en-3-yl]thiobutanoate], the IC50 under setting [1] is 0.0241 µM, the IC50 under setting [2] stood at 0.081 µM and the IC50 under setting [3] is 0.011 µM.
Turning to `C#C[C@]12C[C@@H](O)[C@H](/C=C/[C@@H](O)CCCCC)[C@H]1CC(SCCCC(=O)O)=N2` [19(S)g, Sodium 4-[1-ethynyl-7-hydroxy-6-[(3S)-3-hydroxy-1-octenyl]-2-azabicyclo[3.3.0]oct-2-en-3-yl]thiobutanoate], the IC50 under setting [1] is 0.0049 µM, the IC50 under setting [2] was 0.0093 µM and the IC50 under setting [3] worked out at 0.0093 µM.
Take `CC#C[C@]12C[C@@H](O)[C@H](/C=C/[C@@H](O)CCCCC)[C@H]1CC(SCCCC(=O)O)=N2` [19(S)h, sodium 4-[7-hydroxy-6-[(3S)-3-hydroxy-1-octenyl]-1-(1-propynyl)-2-azabicyclo[3.3.0]oct-2-en-3-yl]thiobutanoate]: the IC50 was determined as 0.0042 µM under setting [1], 0.0035 µM under setting [2] and 0.0028 µM under setting [3].
In the same order, the values of `CCCCC[C@H](O)/C=C/[C@@H]1[C@H]2CC(SCCCC(=O)OC)=N[C@H]2C[C@H]1O` [Compound 18c, reference compound] are 0.074 µM, 0.16 µM and 0.062 µM.
Regarding `CCCCC[C@H](O)/C=C/[C@H]1[C@H](O)CC(=O)[C@@H]1CCCCCCC(=O)O` [PGE1, prostaglandin E1, reference compound], the IC50 reads like this: (pH 7.4, ADP, final 30 μM, Tris buffer, pH7.4, read-out: Inhibition Activity against Platelet Agglutination [50% Inhibition Concentration (μM)], ADP) 0.066 µM; (pH 7.4, arachidonic acid, final 500 μM, Tris buffer, pH7.4, read-out: Inhibition Activity against Platelet Agglutination [50% Inhibition Concentration (μM)], Arachidonic acid) 0.25 µM; (pH 7.4, collagen, final 20 μg/ml, Tris buffer, pH7.4, read-out: Inhibition Activity against Platelet Agglutination [50% Inhibition Concentration (μM)], Collagen) 0.052 µM.
